From PMC3944524, “Antimicrobial Activity of the Marine Alkaloids, Clathrodin and Oroidin, and Their Synthetic Analogues” (Marine Drugs, 2014)
≈ marks a conversion by molar mass, not a printed value.

Tests used:
[1] = test system: Enterococcus faecalis (ATCC 29212); test: Broth microdilution antimicrobial assay, Enterococcus faecalis; assay type: cell-based; conditions: for inhibition at 50 µM / inhibition of growth, primary screen: n = 3, hit threshold >80%, 50 µM; for inhibition at 50 µM: read-out: inhibition of growth, primary screen
Experimental: (§1) Clinical control strains of Enterococcus faecalis (Gram-positive, ATCC 29212), Staphylococcus aureus (Gram-positive, ATCC 25923), Escherichia coli (Gram-negative, ATCC 25922) and a fungal strain, Candida albicans (ATCC 90028), were obtained from Microbiologics Inc. (St. Cloud, MN, USA) and used for the antimicrobial screening. Bacterial strains were grown on Mueller Hinton II agar (MHA, Becton Dickinson, Franklin Lakes, NJ, USA) […] Mueller Hinton II broth (MHB, Becton Dickinson, Franklin Lakes, NJ, USA) and the Candida strain on Sabouraud dextrose agar (SDA, Becton Dickinson, Franklin Lakes, NJ, USA) plates. Media were prepared in MilliQ water, according to the manufacturer's instructions, and autoclaved at 121 °C for 15 min. […] The Candida strain was grown on SDA plates at 28 °C for 18-24 h and suspended into sterile 0.9% saline for the assay. Antimicrobial assays were performed by the broth microdilution method following the guidelines of the Clinical and Laboratory Standards Institute (CLSI) and European Committee on Antimicrobial Susceptibility Testing (EUCAST). […] The Candida suspension was prepared in sterile 0.9% saline solution, and the suspension was diluted in RPMI-1640 media (with L-glutamine, without NaHCO3 and supplemented with 2% glucose and 0.165 M MOPS, buffered to pH 7; Lonza, Basel, Switzerland) to yield a final inoculum of 2.5 × 10^3 CFU/mL in the assay. Assays were carried out in clear 96-well microtiter plates and initiated by dispensing an equal volume of microbial suspension and sample solution diluted into the assay medium. The plates were incubated for 24 h at 37 °C (for Candida, the incubation was at 28 °C for 48 h) with agitation. […] The antimicrobial activity of the samples was calculated from the absorbance values by comparing to untreated controls and expressed as the percentage inhibition of growth. Reference antibiotics were used as positive controls on every assay plate (see Figure 2 for details). […] MIC50 values were determined from the dose-response results by sigmoidal curve fitting with Origin software (OriginLab, Corp., Wellesley Hills, MA, USA).

[2] = test system: Candida albicans (ATCC 90028); test: Broth microdilution antifungal assay, Candida albicans; assay type: cell-based; conditions: 50 µM, 48 h, n = 3, hit threshold >80%
Experimental: Clinical control strains of Enterococcus faecalis (Gram-positive, ATCC 29212), Staphylococcus aureus (Gram-positive, ATCC 25923), Escherichia coli (Gram-negative, ATCC 25922) and a fungal strain, Candida albicans (ATCC 90028), were obtained from Microbiologics Inc. (St. Cloud, MN, USA) and used for the antimicrobial screening. Bacterial strains were grown on Mueller Hinton II agar (MHA, Becton Dickinson, Franklin Lakes, NJ, USA) slants and Mueller Hinton II broth (MHB, Becton Dickinson, Franklin Lakes, NJ, USA) and the Candida strain on Sabouraud dextrose agar (SDA, Becton Dickinson, Franklin Lakes, NJ, USA) plates. Media were prepared in MilliQ water, according to the manufacturer’s instructions, and autoclaved at 121 °C for 15 min. Prior to the assay, bacterial suspensions were prepared in MHB from fresh slant cultures and incubated at 37 °C for 16–20 h at 100 rpm. The Candida strain was grown on SDA plates at 28 °C for 18–24 h and suspended into sterile 0.9% saline for the assay.
Antimicrobial assays were performed by the broth microdilution method following the guidelines of the Clinical and Laboratory Standards Institute (CLSI) and European Committee on Antimicrobial Susceptibility Testing (EUCAST). Bacterial suspensions were prepared as described above and diluted with MHB to obtain a final inoculum of 5 × 10^5 colony-forming units (CFU)/milliliters in the assay (determined on the basis of absorbance values at 620 nm previously calibrated against plate counts). The Candida suspension was prepared in sterile 0.9% saline solution, and the suspension was diluted in RPMI-1640 media (with L-glutamine, without NaHCO3 and supplemented with 2% glucose and 0.165 M MOPS, buffered to pH 7; Lonza, Basel, Switzerland) to yield a final inoculum of 2.5 × 10^3 CFU/mL in the assay. Assays were carried out in clear 96-well microtiter plates and initiated by dispensing an equal volume of microbial suspension and sample solution diluted into the assay medium. The plates were incubated for 24 h at 37 °C (for Candida, the incubation was at 28 °C for 48 h) with agitation. Absorbance was measured at 620 nm with a plate reader at 0, 4 and 24 h with the bacteria and at 0, 24 and 48 h with Candida. The antimicrobial activity of the samples was calculated from the absorbance values by comparing to untreated controls and expressed as the percentage inhibition of growth. Reference antibiotics were used as positive controls on every assay plate (see Figure 2 for details). […] MIC50 values were determined from the dose-response results by sigmoidal curve fitting with Origin software (OriginLab, Corp., Wellesley Hills, MA, USA).

[3] = test system: Staphylococcus aureus (ATCC 25923); test: Broth microdilution antimicrobial assay, Staphylococcus aureus; assay type: cell-based; conditions: for inhibition at 50 µM / MIC90 / MIC50: Staphylococcus aureus; for inhibition at 50 µM / inhibition of growth, primary screen: n = 3, hit threshold >80%, 50 µM; for inhibition at 50 µM: read-out: inhibition of growth, primary screen; for SI (selectivity index): S. aureus MIC50 vs Huh-7 cytotoxicity IC50; for MIC50: sigmoidal curve fitting
Experimental: as §1

[4] = test system: Escherichia coli (ATCC 25922); test: Broth microdilution antimicrobial assay, Escherichia coli; assay type: cell-based
Experimental: as §1

[5] = Mammalian cell cytotoxicity, ATP assay (CellTiter-Glo); assay type: cell-based, human; conditions: human, Huh-7 cells, ATP assay, 24 h exposure, average of two dose-response experiments
Experimental: (§2) Huh-7 cells (originating from human hepatocellular carcinoma) were kindly provided by Prof. Ralf Bartenschlager (University of Heidelberg, Heidelberg, Germany). […] The cells were incubated at 37 °C in a humidified atmosphere with 5% CO2. The effect of the most promising compounds on the metabolic activity of Huh-7 hepatocytes was assessed by intracellular ATP quantitation (Promega’s CellTiter-Glo Cell Viability Assay, Madison, WI, USA). In brief, cells were seeded at 20,000 cells/well on white-walled 96-well microplates (ViewPlate, PerkinElmer Inc., Wellesley, MA, USA) and incubated at 37 °C, 5% CO2 and 95% humidity overnight and then exposed to the compounds for 24 h. Following the exposure, cells were washed with 100 µL PBS, and 50 µL of fresh assay media and 50 µL of the CellTiter-Glo reagent were added into the wells. After 2 min of shaking and 10 min incubation at rt, luminometric signal was measured using a Varioskan Flash plate reader (Thermo Fisher Scientific, Vantaa, Finland). […] The IC50 values were calculated by fitting the data into sigmoidal dose-response curves with the Origin software.

Huh-7 cells = test: as above; assay type: cell-based, human
Experimental: as §2

[6] = Enterococcus faecalis, ATCC29212, 24 h
[7] = ATCC25923, S. aureus ATCC 25923, 24 h
[8] = 50 µM, 24 h, n = 3, hit threshold >80%

Molecule	inhibition at 50 µM [1, 6] [%]	inhibition at 50 µM ([3]; ATCC25923, 24 h) [%]	IC50 at 24 h [5] [µM]	inhibition of growth, primary screen [2]	SI (selectivity index) [3]	MIC90 ([3]; ATCC25923, 24 h) [µM]	MIC50 [3, 7] [µM]	inhibition of growth, primary screen [4, 8]	melting point [°C]	inhibition of growth, primary screen ([1]; 24 h)	inhibition of growth, primary screen ([3]; 24 h)	further results
Nc1nc(/C=C/CNC(=O)c2ccc[nH]2)c[nH]1 [Compound 2a, (E)-N-(3-(2-amino-1H-imidazol-4-yl)allyl)-1H-pyrrole-2-carboxamide]	< 80	< 80	–	–	–	–	–	–	–	–	–	inhibition at 50 µM ([2]; Candida albicans, ATCC90028, read-out: inhibition of growth, primary screen): < 80%; inhibition at 50 µM ([4]; Escherichia coli, ATCC25922, 50 µM, 24 h, n = 3, hit threshold >80%, read-out: inhibition of growth, primary screen): < 80%
Nc1nc(/C=C/CNC(=O)c2cc(Br)c(Br)[nH]2)c[nH]1 [Compound 2b, (E)-N-(3-(2-amino-1H-imidazol-4-yl)allyl)-4,5-dibromo-1H-pyrrole-2-carboxamide]	~50	> 90	> 100	inactive	>3.3	100	30.6 (≈ 11.9 µg/mL)	inactive	–	–	–	–
CC(C)(C)OC(=O)n1cc(-c2cccc(NC(=O)c3cc4cc(Cl)ccc4[nH]3)c2)nc1N [Compound 5i, tert-Butyl 2-amino-4-(3-(5-chloro-1H-indole-2-carboxamido)phenyl)-1H-imidazole-1-carboxylate]	–	–	> 100	–	>8.6	75	11.7 (≈ 5.29 µg/mL)	–	188 to 190	–	–	cytotoxicity at highest tested concentration (Huh-7 cells; 100 µM): non-cytotoxicity
Nc1nc(-c2cccc(NC(=O)c3c[nH]c4ccccc34)c2)c[nH]1 [Compound 6e]	–	–	–	inactive	–	–	–	inactive	–	inactive	inactive	–
Cl.Nc1nc(-c2cccc(NC(=O)c3cc4cc(OCc5ccccc5)ccc4[nH]3)c2)c[nH]1 [Compound 6h, 2-Amino-4-(3-(5-(benzyloxy)-1H-indole-2-carboxamido)phenyl)-1H-imidazol-3-ium chloride]	–	–	21.2	no activity	2.9	12.5	7.3	active	175 to 178	active	active	SI (selectivity index) ([1]; E. faecalis MIC50 vs Huh-7 cytotoxicity IC50): 2.7; MIC90 [1, 6]: 12.5 µM; MIC90 ([1]; Enterococcus faecalis, ATCC29212, E. faecalis ATCC 29212, 24 h): 5.7 µg/mL; MIC50 ([1]; Enterococcus faecalis, ATCC29212, E. faecalis ATCC 29212, 24 h, sigmoidal curve fitting): 8 µM; MIC90 [3, 7]: 5.7 µg/mL; SI (selectivity index) ([4]; E. coli MIC50 vs Huh-7 cytotoxicity IC50): 0.7; MIC90 ([4]; Escherichia coli, ATCC25922, 24 h): 50 µM; MIC50 ([4]; Escherichia coli, ATCC25922, E. coli ATCC 25922, 24 h, sigmoidal curve fitting): 30.4 µM
Polymyxin-B sulfate [reference compound]	–	–	–	–	–	–	–	–	–	–	–	average cytotoxicity (Huh-7 cells; 15,000 IU/mL, positive control, 24 h): 88%
